Assay results as given in patent publication US20210317134A1, “UBIQUITIN-SPECIFIC-PROCESSING PROTEASE 7 (USP7) MODULATORS AND USES THEREOF” (RAPT THERAPEUTICS, INC., priority 2019, published 2021).

Target: USP7 (Homo sapiens, UniProt Q93009)
Experiment: USP7 inhibitory potency (Table 1)
Type: biochemical

USP7, sequence (Q93009 whole entry): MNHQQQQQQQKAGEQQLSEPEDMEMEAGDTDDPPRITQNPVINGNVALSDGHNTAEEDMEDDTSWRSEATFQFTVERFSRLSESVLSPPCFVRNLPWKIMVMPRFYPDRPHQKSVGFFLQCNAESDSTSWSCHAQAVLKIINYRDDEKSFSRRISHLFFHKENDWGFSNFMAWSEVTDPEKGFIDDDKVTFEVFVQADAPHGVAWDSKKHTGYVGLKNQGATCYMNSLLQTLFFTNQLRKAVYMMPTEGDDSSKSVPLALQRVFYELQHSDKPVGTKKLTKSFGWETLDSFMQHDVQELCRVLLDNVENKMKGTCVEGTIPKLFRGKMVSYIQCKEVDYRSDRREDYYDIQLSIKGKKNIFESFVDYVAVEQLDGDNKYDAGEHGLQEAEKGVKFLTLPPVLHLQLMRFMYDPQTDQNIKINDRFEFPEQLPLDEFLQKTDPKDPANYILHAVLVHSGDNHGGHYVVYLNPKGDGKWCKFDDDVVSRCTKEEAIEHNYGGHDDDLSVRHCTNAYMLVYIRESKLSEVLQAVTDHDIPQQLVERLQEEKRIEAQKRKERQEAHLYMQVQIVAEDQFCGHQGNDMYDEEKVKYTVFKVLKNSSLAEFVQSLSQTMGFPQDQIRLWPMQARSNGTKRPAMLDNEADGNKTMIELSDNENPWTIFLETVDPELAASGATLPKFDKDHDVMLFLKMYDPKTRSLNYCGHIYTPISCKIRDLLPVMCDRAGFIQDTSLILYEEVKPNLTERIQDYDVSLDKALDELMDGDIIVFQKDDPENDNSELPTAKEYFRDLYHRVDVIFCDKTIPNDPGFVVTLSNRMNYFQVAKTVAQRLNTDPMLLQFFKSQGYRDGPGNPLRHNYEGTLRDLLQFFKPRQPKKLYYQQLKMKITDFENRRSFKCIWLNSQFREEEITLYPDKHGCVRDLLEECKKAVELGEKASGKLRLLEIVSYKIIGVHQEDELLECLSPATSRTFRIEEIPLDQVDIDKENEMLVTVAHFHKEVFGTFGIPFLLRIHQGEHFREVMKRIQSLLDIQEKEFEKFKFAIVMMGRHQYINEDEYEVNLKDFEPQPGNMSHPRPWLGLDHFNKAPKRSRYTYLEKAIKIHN

SMILES | IC50 [µM]
CC(O)c1cc2nccc(-c3cc(Cl)cc4c3O[C@@H](C(=O)N3CCNCC3)C4)c2s1 (stereo partly drawn) [((2R)-5-chloro-7-(2-(1-hydroxyethyl)thieno[3,2-b]pyridin-7-yl)-2,3-dihydrobenzofuran-2-yl)(piperazin-1-yl)methanone] | < 1
CC1CCC(=O)N1Cc1cc2nccc(-c3cc(Cl)cc4c3O[C@@H](C(=O)N3CCNCC3)C4)c2s1 (stereo partly drawn) [1-((7-((R)-5-chloro-2-(piperazine-1-carbonyl)-2,3-dihydrobenzofuran-7-yl)thieno[3,2-b]pyridin-2-yl)methyl)-5-methylpyrrolidin-2-one] | < 1
Nc1nccc(-c2cc(Cl)cc3c2OC(C(=O)N2CCNCC2)C3)c1Cl (stereo not shown) [(7-(2-amino-3-chloropyridin-4-yl)-5-chloro-2,3-dihydrobenzofuran-2-yl)(piperazin-1-yl)methanone] | 1 to 10
O=C(C1Cc2cc(Cl)cc(-c3ccnc4[nH]ccc34)c2O1)N1CCC(c2ccc(O)cc2)CC1 (stereo not shown) [(5-chloro-7-(1H-pyrrolo[2,3-b]pyridin-4-yl)-2,3-dihydrobenzofuran-2-yl)(4-(4-hydroxyphenyl)piperidin-1-yl)methanone] | 10 to 30
CCC(O)c1ccc2c(-c3cc(Cl)cc4c3O[C@@H](C(=O)N3CCNCC3)C4)ccnc2c1 (stereo partly drawn) [((2R)-5-chloro-7-(7-(1-hydroxypropyl)quinolin-4-yl)-2,3-dihydrobenzofuran-2-yl)(piperazin-1-yl)methanone] | 1 to 10
CC(C)(O)C1Cc2nccc(-c3cc(Cl)cc4c3O[C@@H](c3onc5c3CNCC5)C4)c2C1 (stereo partly drawn) [2-(4-((R)-5-chloro-2-(4,5,6,7-tetrahydroisoxazolo[4,3-c]pyridin-3-yl)-2,3-dihydrobenzofuran-7-yl)-6,7-dihydro-5H-cyclopenta[b]pyridin-6-yl)propan-2-ol] | 1 to 10
O=C(C1Cc2cc(Cl)cc(-c3ccnc4[nH]ccc34)c2O1)N1CCC(O)(c2ccc(Cl)cc2)CC1 (stereo not shown) [(5-chloro-7-(1H-pyrrolo[2,3-b]pyridin-4-yl)-2,3-dihydrobenzofuran-2-yl)(4-(4-chlorophenyl)-4-hydroxypiperidin-1-yl)methanone] | 1 to 10
O=C(C1CCNCC1)C1Cc2cc(Cl)cc(-c3ccnc4[nH]ccc34)c2O1 (stereo not shown) [(5-chloro-7-(1H-pyrrolo[2,3-b]pyridin-4-yl)-2,3-dihydrobenzofuran-2-yl)(piperidin-4-yl)methanone] | 1 to 10
CN(C)[C@@H]1CCN(C(=O)[C@H]2Cc3cc(Cl)cc(-c4ccnc5ccsc45)c3O2)C1 [((R)-5-chloro-7-(thieno[3,2-b]pyridin-7-yl)-2,3-dihydrobenzofuran-2-yl)((R)-3-(dimethylamino)pyrrolidin-1-yl)methanone] | < 1
C[C@H]1CN(C(=O)C2Cc3cc(Cl)cc(-c4ccnc5[nH]ccc45)c3O2)CCN1 (stereo partly drawn) [(5-chloro-7-(1H-pyrrolo[2,3-b]pyridin-4-yl)-2,3-dihydrobenzofuran-2-yl)((S)-3-methylpiperazin-1-yl)methanone] | 1 to 10
CN(C)C1CCCN(C(=O)[C@H]2Cc3cc(Cl)cc(-c4ccnc5ccsc45)c3O2)C1 (stereo partly drawn) [((R)-5-chloro-7-(thieno[3,2-b]pyridin-7-yl)-2,3-dihydrobenzofuran-2-yl)(3-(dimethylamino)piperidin-1-yl)methanone] | < 1
Nc1cc(-c2cc(Cl)cc3c2OC(C(=O)N2CCNCC2)C3)ccn1 (stereo not shown) [(7-(2-Aminopyridin-4-yl)-5-chloro-2,3-dihydrobenzofuran-2-yl)(piperazin-1-yl)methanone] | 1 to 10
O=C(C1Cc2cc(Cl)cc(-c3ccnc4[nH]c(Cc5cccnc5)cc34)c2O1)N1CCNCC1 (stereo not shown) [(5-chloro-7-(2-(pyridin-3-ylmethyl)-1H-pyrrolo[2,3-b]pyridin-4-yl)-2,3-dihydrobenzofuran-2-yl)(piperazin-1-yl)methanone] | 1 to 10
O=C1c2ccccc2C2(c3cc4ncnc(-c5cc(Cl)cc6c5O[C@@H](c5onc7c5CNCC7)C6)c4s3)OCCN12 (stereo partly drawn) [9b-(4-((R)-5-chloro-2-(4,5,6,7-tetrahydroisoxazolo[4,3-c]pyridin-3-yl)-2,3-dihydrobenzofuran-7-yl)thieno[3,2-d]pyrimidin-6-yl)-2,3-dihydrooxazolo[2,3-a]isoindol-5(9bH)-one] | 10 to 30
O=C(C1Cc2cc(Cl)cc(-c3ccnc(NCCO)c3)c2O1)N1CCNCC1 (stereo not shown) [(5-chloro-7-(2-((2-hydroxyethyl)amino)pyridin-4-yl)-2,3-dihydrobenzofuran-2-yl)(piperazin-1-yl)methanone] | 1 to 10
COc1ccc2c(-c3cc(Cl)cc4c3OC(C(=O)N3CCNCC3)C4)ccnc2c1 (stereo not shown) [(5-chloro-7-(7-methoxyquinolin-4-yl)-2,3-dihydrobenzofuran-2-yl)(piperazin-1-yl)methanone] | 1 to 10

Other lines, results leading:

IC50 [µM] | SMILES
< 1 | Clc1cc2c(c(-c3ccnc4ccsc34)c1)O[C@@H](c1onc3c1CNCC3)C2 [(R)-3-(5-chloro-7-(thieno[3,2-b]pyridin-7-yl)-2,3-dihydrobenzofuran-2-yl)-4,5,6,7-tetrahydroisoxazolo[4,3-c]pyridine]
< 1 | N#Cc1ccc2c(-c3cc(Cl)cc4c3O[C@@H](c3n[nH]c5c3CNCC5)C4)ccnc2c1 [(R)-4-(5-chloro-2-(4,5,6,7-tetrahydro-1H-pyrazolo[4,3-c]pyridin-3-yl)-2,3-dihydrobenzofuran-7-yl)quinoline-7-carbonitrile]
1 to 10 | O=C([C@H]1Cc2cc(Cl)cc(-c3ccnc4sccc34)c2O1)N1CCNCC1 [(R)-(5-chloro-7-(thieno[2,3-b]pyridin-4-yl)-2,3-dihydrobenzofuran-2-yl)(piperazin-1-yl)methanone]
< 1 | CC[C@H](O)c1cc2ncnc(-c3cc(Cl)cc4c3O[C@@H](c3onc5c3CNCC5)C4)c2s1 [(S)-1-(4-((R)-5-chloro-2-(4,5,6,7-tetrahydroisoxazolo[4,3-c]pyridin-3-yl)-2,3-dihydrobenzofuran-7-yl)thieno[3,2-d]pyrimidin-6-yl)propan-1-ol]
1 to 10 | O=C(NCc1ccccc1)c1cc2c(-c3cc(Cl)cc4c3OC(C(=O)N3CCNCC3)C4)ccnc2[nH]1 (stereo not shown) [N-benzyl-4-(5-chloro-2-(piperazine-1-carbonyl)-2,3-dihydrobenzofuran-7-yl)-1H-pyrrolo[2,3-b]pyridine-2-carboxamide]
< 1 | Clc1cc2c(c(-c3ccnc4ccsc34)c1)O[C@@H](c1ocnc1CN1CCC1)C2 [(R)-4-(azetidin-1-ylmethyl)-5-(5-chloro-7-(thieno[3,2-b]pyridin-7-yl)-2,3-dihydrobenzofuran-2-yl)oxazole]
< 1 | O=C([C@H]1Cc2cc(Cl)cc(-c3ccnc4cc(CN5C(=O)CCC5=O)ccc34)c2O1)N1CCNCC1 [(R)-1-((4-(5-chloro-2-(piperazine-1-carbonyl)-2,3-dihydrobenzofuran-7-yl)quinolin-7-yl)methyl)pyrrolidine-2,5-dione]
< 1 | O=C([C@H]1Cc2cc(Cl)cc(-c3ccnc4cc(CN5C(=O)COC5=O)sc34)c2O1)N1CCNCC1 [(R)-3-((7-(5-chloro-2-(piperazine-1-carbonyl)-2,3-dihydrobenzofuran-7-yl)thieno[3,2-b]pyridin-2-yl)methyl)oxazolidine-2,4-dione]
< 1 | O=C([C@H]1Cc2cc(Cl)cc(-c3ccnc4cc(CCN5C(=O)CCC5=O)sc34)c2O1)N1CCNCC1 [(R)-1-(2-(7-(5-chloro-2-(piperazine-1-carbonyl)-2,3-dihydrobenzofuran-7-yl)thieno[3,2-b]pyridin-2-yl)ethyl)pyrrolidine-2,5-dione]
< 1 | CN[C@H]1CCCN(C(=O)[C@H]2Cc3cc(Cl)cc(-c4ccnc5ccsc45)c3O2)C1 [((R)-5-chloro-7-(thieno[3,2-b]pyridin-7-yl)-2,3-dihydrobenzofuran-2-yl)((S)-3-(methylamino)piperidin-1-yl)methanone]
10 to 30 | Cc1ccc(S(=O)(=O)N2Cc3nccc(-c4cc(Cl)cc5c4O[C@@H](c4onc6c4CNCC6)C5)c3C2)cc1 [(R)-3-(5-chloro-7-(6-tosyl-6,7-dihydro-5H-pyrrolo[3,4-b]pyridin-4-yl)-2,3-dihydrobenzofuran-2-yl)-4,5,6,7-tetrahydroisoxazolo[4,3-c]pyridine]
10 to 30 | CN[C@@H]1CCCN(C(=O)[C@H]2Cc3cc(Cl)cc(-c4ccnc5ccsc45)c3O2)C1 [((R)-5-chloro-7-(thieno[3,2-b]pyridin-7-yl)-2,3-dihydrobenzofuran-2-yl)((R)-3-(methylamino)piperidin-1-yl)methanone]
< 1 | O=C1CCC(=O)N1Cc1cc2nccc(-c3cc(Cl)cc4c3O[C@@H](c3onc5c3CNCC5)C4)c2s1 [(R)-1-((7-(5-chloro-2-(4,5,6,7-tetrahydroisoxazolo[4,3-c]pyridin-3-yl)-2,3-dihydrobenzofuran-7-yl)thieno[3,2-b]pyridin-2-yl)methyl)pyrrolidine-2,5-dione]
< 1 | O[C@@]1(c2cc3nccc(-c4cc(Cl)cc5c4O[C@@H](c4onc6c4CNCC6)C5)c3s2)CCOC1 [(S)-3-(7-((R)-5-chloro-2-(4,5,6,7-tetrahydroisoxazolo[4,3-c]pyridin-3-yl)-2,3-dihydrobenzofuran-7-yl)thieno[3,2-b]pyridin-2-yl)tetrahydrofuran-3-ol]
< 1 | O=C([C@H]1Cc2cc(Cl)cc(-c3ccnc4cc(CCN5C(=O)c6ccccc6C5=O)sc34)c2O1)N1CCNCC1 [(R)-2-(2-(7-(5-chloro-2-(piperazine-1-carbonyl)-2,3-dihydrobenzofuran-7-yl)thieno[3,2-b]pyridin-2-yl)ethyl)isoindoline-1,3-dione]
< 1 | CN1CCc2noc([C@H]3Cc4cc(Cl)cc(-c5ccnc6ccsc56)c4O3)c2C1 [(R)-3-(5-chloro-7-(thieno[3,2-b]pyridin-7-yl)-2,3-dihydrobenzofuran-2-yl)-5-methyl-4,5,6,7-tetrahydroisoxazolo[4,3-c]pyridine]
< 1 | O=C([C@H]1Cc2cc(Cl)cc(-c3ccnc4cc(CN5C(=O)CCCC5=O)sc34)c2O1)N1CCNCC1 [(R)-1-((7-(5-chloro-2-(piperazine-1-carbonyl)-2,3-dihydrobenzofuran-7-yl)thieno[3,2-b]pyridin-2-yl)methyl)piperidine-2,6-dione]
< 1 | O=C([C@H]1Cc2cc(Cl)cc(-c3ccnc4cc(CCNS(=O)(=O)c5ccccc5)sc34)c2O1)N1CCNCC1 [(R)-N-(2-(7-(5-chloro-2-(piperazine-1-carbonyl)-2,3-dihydrobenzofuran-7-yl)thieno[3,2-b]pyridin-2-yl)ethyl)benzenesulfonamide]
